Data on eight compounds can be found in US11731976B2, “3-(ethoxydifluoromethyl)-6-(5-fluoro-6-(2,2,2-trifluoroethoxy)pyridin-3-yl)-[1,2,4]triazolo[4,3-a]pyridine as an ion channel modulator” (Praxis Precision Medicines, Inc., priority 2018, dated 2023).

Test [1] has as its system Male CD-1 mice. Nature of the test: Maximal Electroshock induced Seizure (MES) assay in mice. Type of test: in vivo, mouse. Particulars: 35% HPCD, recorded up to 60 seconds post stimulus. Here is the method:
Male CD-1 mice, weighing 25-35 g were assessed in the Maximal Electroshock induced Seizure (MES) assay. Briefly, mice were dosed with compound (n=12/group) according to the dosing parameters in Table 20 and the latency to induce tonic hind limb extension following transauricular electrical stimulation (50 Hz, 50 mA, 0.8 sec duration, pulse width of 10 ins) was recorded up to 60 seconds post stimulus.
(In the maximal electroshock model the usual endpoint is tonic extension of the hind limbs.)

Test [2] addresses T1, human NaV1.6 (hNaV1.6) (Homo sapiens, UniProt Q9UQD0).
T1 construct: expressed in transfected cells; host or cells: HEK-293
Nature of the test: Modulation of late sodium current (INaL), PatchXpress electrophysiology, HEK-293 cells expressing hNaV1.6. The following applies: HEK293, late current evoked by 300 nM ATX-II, read-out: NaV 1.6 Assay Data: percent inhibition of INaL at hNaV1.6. Type of test: cell-based. The essentials: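 PatchXpress automated patch clamp on HEK-293 cells expressing recombinant hNaV1.6; late current enhanced with 300 nM ATX-II. INaL evoked by 200 ms steps to 0 mV from about −120 mV at 0.1 Hz, measured as mean amplitude over the final 20 ms. Percent steady-state inhibition versus control current.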

The target in test [3] is T2, hNaV1.7-WT (Homo sapiens, UniProt Q15858).
T2 construct: expressed in transfected cells; host or cells: HEK-293
Nature of the test: Voltage step activated sodium current (Peak INa), PatchXpress, HEK-293. Particulars: HEK293; percent inhibition measured at 1 μM; step to 0 mV from half-inactivation holding potential. The format is cell-based. As to the method:
(§1) Functional characterization of exemplary compounds to modulate INa expressed by various human isoforms and disease-causing mutant voltage-gated sodium channels was accomplished using the PatchXpress high throughput electrophysiology platform (Molecular Devices, Sunnyvale, Calif.). HEK-293 cells expressing a recombinant, human NaV1.X sodium channel (either hNaV1.6-WT, hNaV1.6-R223G, hNaV1.6-N984K, hNaV1.6-N1768D, hNaV1.1-WT, hNaV1.2-WT, hNaV1.5-WT, hNaV1.7-WT, or hNaV1.8-WT) were grown in DMEM/high-glucose Dulbecco's modified, 10% FBS, 2 mM sodium pyruvate, 10 mM HEPES and 400 μg/mL G418. Cells were grown to 50%-80% confluency prior to harvesting. Trypsinized cells were washed, allowed to recover for 1 hour and then resuspended in extracellular recording solution at a concentration of 1×10^6 cells/ml. The onboard liquid handling facility of the PatchXpress was used for dispensing cells and applying test compounds. INa amplitude and stability were determined by analyzing the peak current amplitude.
(§2) Peak INa was evoked by depolarizing steps to 0 mV for 20 ms from a holding potential which evoked half-inactivation (e.g., −60 mV) at a frequency of 0.1 Hz. The voltage of half-inactivation was determined for each cell using a 5 sec prepulse to membrane potentials between −120 mV and −20 mV followed immediately by a voltage step to a fully activating membrane voltage (e.g., 0 mV). Following steady state block with exemplary compounds (e.g., as described herein), the degree of inhibition was measured using the average of three consecutive voltage steps. Percent steady-state inhibition of INa was calculated as: [(INa_compound)/(INa_control)]*100, where INa_compound and INa_control represent INa recorded in the presence or absence of compound, respectively.
(§3) In this table, “A” indicates inhibition between less than 0% to 50% and “B” indicates inhibition of greater than 50% and N/A indicates the compound was not tested.

For test [4], the target named is T3, hNaV1.1-WT (Homo sapiens, UniProt P35498).
T3 construct: expressed in transfected cells; host or cells: HEK-293
The description is as above. The format is cell-based. The following applies: percent inhibition measured at 1 μM; step to 0 mV from half-inactivation holding potential. As to the method: as §1, §2, §3

The target in test [5] is T4, hNaV1.6-WT (Homo sapiens, UniProt Q9UQD0).
T4 construct: expressed in transfected cells; host or cells: HEK-293
The test is described as above. The format is cell-based. The following applies: HEK293; percent inhibition measured at 1 μM; step to 0 mV from half-inactivation holding potential. Here is the method: as §1, §2, §3

Test [6] deals with T5, hNaV1.5-WT (Homo sapiens, UniProt Q14524).
T5 construct: expressed in transfected cells; host or cells: HEK-293
The description is as above. Type of test: cell-based. Particulars: HEK293; percent inhibition measured at 1 μM; step to 0 mV from half-inactivation holding potential. As to the method: as §1, §2, §3

Test [7] addresses T6, hNaV1.8-WT (Homo sapiens, UniProt Q9Y5Y9).
T6 construct: expressed in transfected cells; host or cells: HEK-293
The test is described as above. The format is cell-based. Particulars: HEK293; percent inhibition measured at 1 μM; step to 0 mV from half-inactivation holding potential. As to the method:
as §1, §2, §3

In test [8] the target is T7, hNaV1.6-R223G (Homo sapiens, UniProt Q9UQD0, R223G).
T7 construct: expressed in transfected cells; host or cells: HEK-293
Nature of the test: Voltage ramp activated sodium current (Ramp INa), PatchXpress, HEK-293. The format is cell-based. The following applies: HEK293; percent inhibition of enhanced ramp current at 1 μM; +600 mv/sec ramp from −100 mV to +20 mV. Here is the method:
as §1
(§4) The Nav1.6 mutant channels (hNaV1.6-R223G, hNaV1.6-N984K, hNaV1.6-N1768D) express an enhanced sodium current in response to a ramp voltage depolarization when compared to the wild-type hNaV1.6-WT. This enhanced, depolarizing ramp current is thought to contribute to enhanced neuronal excitability. The degree of block with exemplary compounds (e.g., as described herein) was measured using a +600 mv/sec voltage ramp from −100 mV to +20 mV. The ramp current was defined as the area of the current measured between −55 mV and +15 mV. Following steady state block with exemplary compounds (e.g., as described herein) at 1 μM, a Na^+ free solution containing an impermeant cation (e.g., Choline or NMDG) was added for determination of the baseline current level for offline subtraction. Percent inhibition of enhanced ramp current was calculated as (compound−baseline)/(control−baseline)*100, where control represents the ramp current recorded in the absence of compound. In this table, “A” indicates inhibition between less than 0% to 50% and “B” indicates inhibition of greater than 50% and N/A indicates the compound was not tested.

Test [9] deals with T8, hNaV1.6-N984K (Homo sapiens, UniProt Q9UQD0, N984K).
T8 construct: expressed in transfected cells; host or cells: HEK-293
The test is described as above. Type of test: cell-based. The following applies: HEK293; percent inhibition of enhanced ramp current at 1 μM; +600 mv/sec ramp from −100 mV to +20 mV. Here is the method:
as §1, §4

Test [10] concerns the target T9, hNaV1.6-N1768D (Homo sapiens, UniProt Q9UQD0, N1768D).
T9 construct: expressed in transfected cells; host or cells: HEK-293
Described as above. Type of test: cell-based. The following applies: HEK293; percent inhibition of enhanced ramp current at 1 μM; +600 mv/sec ramp from −100 mV to +20 mV. Here is the method: as §1, §4

The target of test [11] is T10, hNaV1.2-WT (Homo sapiens, UniProt Q99250).
T10 construct: expressed in transfected cells; host or cells: HEK-293
The test can be described thus: Voltage step activated sodium current (Peak INa), PatchXpress, HEK-293. Type of test: cell-based. Particulars: percent inhibition measured at 1 μM; step to 0 mV from half-inactivation holding potential. As to the method:
as §1, §2, §3

Test [12] has as its target T11, human NaV 1.2 (h NaV 1.2) (Homo sapiens, UniProt Q99250).
T11 construct: expressed in transfected cells; host or cells: HEK-293
The test can be described thus: Modulation of late sodium current (INaL), PatchXpress electrophysiology, HEK-293 cells expressing hNaV1.2. The format is cell-based. The following applies: HEK293, read-out: NaV 1.2 Assay Data: percent inhibition of INaL at hNaV1.2.

The mark [13] stands for this setting: 3 mg/kg PO, pre-treatment 30 min.
[14] abbreviates: 10 mg/kg PO, pre-treatment 30 min.

One may read the inhibition as the relative decrease from the control value, in per cent.

T1 sequence (Q9UQD0 whole entry): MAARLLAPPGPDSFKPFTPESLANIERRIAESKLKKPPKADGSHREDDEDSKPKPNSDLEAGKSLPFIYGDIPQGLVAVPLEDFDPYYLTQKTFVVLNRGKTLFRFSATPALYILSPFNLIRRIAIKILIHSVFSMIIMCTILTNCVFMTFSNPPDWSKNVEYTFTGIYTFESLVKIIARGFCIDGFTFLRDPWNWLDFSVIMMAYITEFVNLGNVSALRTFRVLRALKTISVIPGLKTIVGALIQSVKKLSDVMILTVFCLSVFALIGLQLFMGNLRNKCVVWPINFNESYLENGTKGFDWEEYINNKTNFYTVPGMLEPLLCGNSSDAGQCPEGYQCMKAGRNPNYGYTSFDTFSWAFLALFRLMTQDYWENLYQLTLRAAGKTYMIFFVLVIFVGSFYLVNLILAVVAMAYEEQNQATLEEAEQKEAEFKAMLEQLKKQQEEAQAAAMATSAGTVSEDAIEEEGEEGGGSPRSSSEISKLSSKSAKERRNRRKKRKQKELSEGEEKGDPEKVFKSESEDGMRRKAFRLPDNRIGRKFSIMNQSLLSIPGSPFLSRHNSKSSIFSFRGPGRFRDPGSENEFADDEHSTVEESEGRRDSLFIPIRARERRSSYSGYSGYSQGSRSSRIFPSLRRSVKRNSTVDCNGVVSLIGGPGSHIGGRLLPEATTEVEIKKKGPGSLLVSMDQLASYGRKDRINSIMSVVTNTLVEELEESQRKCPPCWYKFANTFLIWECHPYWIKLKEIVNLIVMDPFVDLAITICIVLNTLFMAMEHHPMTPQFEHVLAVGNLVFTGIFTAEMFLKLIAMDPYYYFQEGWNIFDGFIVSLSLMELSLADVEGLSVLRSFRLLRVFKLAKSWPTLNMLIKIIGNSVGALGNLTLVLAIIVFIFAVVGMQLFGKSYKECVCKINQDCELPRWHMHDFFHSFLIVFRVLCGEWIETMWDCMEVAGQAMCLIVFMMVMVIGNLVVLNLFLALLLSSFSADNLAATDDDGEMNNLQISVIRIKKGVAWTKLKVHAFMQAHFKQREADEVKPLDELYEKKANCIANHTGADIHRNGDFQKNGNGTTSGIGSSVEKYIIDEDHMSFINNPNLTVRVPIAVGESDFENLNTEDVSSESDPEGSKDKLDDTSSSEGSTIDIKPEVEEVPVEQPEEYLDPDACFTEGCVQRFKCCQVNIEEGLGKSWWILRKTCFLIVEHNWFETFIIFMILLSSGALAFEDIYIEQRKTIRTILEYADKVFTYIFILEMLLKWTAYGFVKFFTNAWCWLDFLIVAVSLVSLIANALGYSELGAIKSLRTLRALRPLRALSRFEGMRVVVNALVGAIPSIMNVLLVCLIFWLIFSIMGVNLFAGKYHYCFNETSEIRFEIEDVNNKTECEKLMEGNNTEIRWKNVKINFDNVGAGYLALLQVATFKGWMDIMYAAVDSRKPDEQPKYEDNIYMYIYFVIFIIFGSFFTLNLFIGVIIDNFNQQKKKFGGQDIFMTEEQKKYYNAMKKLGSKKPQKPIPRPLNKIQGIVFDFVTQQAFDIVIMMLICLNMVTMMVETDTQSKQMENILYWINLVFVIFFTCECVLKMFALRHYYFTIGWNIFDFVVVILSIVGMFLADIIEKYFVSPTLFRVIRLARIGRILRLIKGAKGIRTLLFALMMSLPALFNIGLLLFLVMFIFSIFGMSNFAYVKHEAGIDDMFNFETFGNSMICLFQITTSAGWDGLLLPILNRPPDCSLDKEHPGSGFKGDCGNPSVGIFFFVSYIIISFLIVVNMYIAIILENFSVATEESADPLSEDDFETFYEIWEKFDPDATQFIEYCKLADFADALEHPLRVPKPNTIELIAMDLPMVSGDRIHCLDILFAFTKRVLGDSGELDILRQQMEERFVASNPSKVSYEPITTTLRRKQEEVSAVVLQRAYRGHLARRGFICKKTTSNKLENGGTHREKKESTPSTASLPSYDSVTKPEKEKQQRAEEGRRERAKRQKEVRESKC
T4 sequence (Q9UQD0 whole entry): as above
T9 sequence (Q9UQD0 whole entry N1768D): as the sequence (Q9UQD0 whole entry) above, with N1768D counted along it
T2 sequence (Q15858 whole entry): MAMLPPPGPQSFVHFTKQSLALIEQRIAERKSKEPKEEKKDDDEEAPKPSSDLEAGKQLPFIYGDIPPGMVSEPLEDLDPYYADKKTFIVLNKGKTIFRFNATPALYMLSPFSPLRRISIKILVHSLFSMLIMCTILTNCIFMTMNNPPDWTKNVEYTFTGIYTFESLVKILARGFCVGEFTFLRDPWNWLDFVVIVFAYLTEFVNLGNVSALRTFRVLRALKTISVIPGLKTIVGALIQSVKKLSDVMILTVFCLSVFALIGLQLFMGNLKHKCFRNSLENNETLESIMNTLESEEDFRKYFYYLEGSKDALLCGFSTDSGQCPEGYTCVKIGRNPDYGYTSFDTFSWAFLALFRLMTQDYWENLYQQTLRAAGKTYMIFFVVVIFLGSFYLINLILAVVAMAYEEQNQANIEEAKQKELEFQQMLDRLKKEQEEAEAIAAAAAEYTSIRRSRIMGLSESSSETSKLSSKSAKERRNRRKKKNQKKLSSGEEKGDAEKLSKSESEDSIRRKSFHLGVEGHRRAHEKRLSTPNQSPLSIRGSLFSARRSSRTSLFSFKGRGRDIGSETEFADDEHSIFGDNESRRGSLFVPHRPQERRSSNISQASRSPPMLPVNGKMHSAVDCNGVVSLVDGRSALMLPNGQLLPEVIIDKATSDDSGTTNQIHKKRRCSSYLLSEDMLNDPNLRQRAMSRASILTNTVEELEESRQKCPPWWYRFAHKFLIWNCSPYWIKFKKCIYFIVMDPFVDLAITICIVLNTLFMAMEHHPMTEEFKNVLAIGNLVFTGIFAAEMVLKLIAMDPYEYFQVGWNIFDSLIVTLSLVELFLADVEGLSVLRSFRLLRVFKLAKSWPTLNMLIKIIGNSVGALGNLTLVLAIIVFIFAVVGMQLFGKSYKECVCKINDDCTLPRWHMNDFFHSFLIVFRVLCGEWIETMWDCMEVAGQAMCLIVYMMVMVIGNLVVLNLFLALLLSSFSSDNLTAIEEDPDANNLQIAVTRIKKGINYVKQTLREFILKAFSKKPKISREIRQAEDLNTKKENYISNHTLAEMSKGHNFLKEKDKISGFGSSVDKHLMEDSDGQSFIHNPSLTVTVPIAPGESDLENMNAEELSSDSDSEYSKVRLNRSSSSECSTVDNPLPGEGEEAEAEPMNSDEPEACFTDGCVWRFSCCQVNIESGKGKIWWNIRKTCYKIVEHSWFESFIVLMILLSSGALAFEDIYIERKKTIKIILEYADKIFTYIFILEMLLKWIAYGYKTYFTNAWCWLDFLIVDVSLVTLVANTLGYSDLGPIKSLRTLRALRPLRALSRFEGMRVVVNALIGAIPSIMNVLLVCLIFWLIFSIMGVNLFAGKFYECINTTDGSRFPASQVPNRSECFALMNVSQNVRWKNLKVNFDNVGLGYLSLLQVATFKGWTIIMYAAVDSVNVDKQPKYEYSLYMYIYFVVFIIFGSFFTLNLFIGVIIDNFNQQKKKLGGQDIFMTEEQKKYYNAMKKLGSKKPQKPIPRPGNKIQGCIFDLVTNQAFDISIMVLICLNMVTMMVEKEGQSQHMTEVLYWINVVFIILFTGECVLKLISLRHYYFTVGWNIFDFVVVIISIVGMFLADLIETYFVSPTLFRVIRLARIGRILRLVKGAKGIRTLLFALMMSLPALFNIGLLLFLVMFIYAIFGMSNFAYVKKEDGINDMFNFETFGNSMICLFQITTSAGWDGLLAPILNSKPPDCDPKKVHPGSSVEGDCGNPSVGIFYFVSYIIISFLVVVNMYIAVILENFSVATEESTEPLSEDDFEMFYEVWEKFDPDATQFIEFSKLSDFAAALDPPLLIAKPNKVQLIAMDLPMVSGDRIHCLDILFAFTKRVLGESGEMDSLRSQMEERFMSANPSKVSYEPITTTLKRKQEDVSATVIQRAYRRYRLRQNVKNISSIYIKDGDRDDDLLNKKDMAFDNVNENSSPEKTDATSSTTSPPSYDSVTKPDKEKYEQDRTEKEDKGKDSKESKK
T8 sequence (Q9UQD0 whole entry N984K): as the sequence (Q9UQD0 whole entry) above, with N984K counted along it
T7 sequence (Q9UQD0 whole entry R223G): as the sequence (Q9UQD0 whole entry) above, with R223G counted along it

On to `CCOC(F)(F)c1nnc2ccc(-c3cnc(OCC(F)(F)F)c(F)c3)cn12` [Compound 3, 3-[ethoxy(difluoro)methyl]-6-[5-fluoro-6-(2,2,2-trifluoroethoxy)-3-pyridyl]-[1,2,4]triazolo[4,3-a]pyridine], for which the “Mean latency to tonic extension” value in test [1] (setting [13]) and in test [1] (setting [14]) was 60 s in each case. Also, the inhibition at 1 µM in [2] is over 70%; in [3], over 50%; in test [5] it was over 50%; in test [6], over 50%; in test [7], over 50%; in test [8], over 50%. Further, the inhibition at 1 µM in test [9] and in [10] was over 50% in each case. Besides, in test [4], the “hNav1.1 Peak INa” value is on record as “B (inhibition of greater than 50%)”.

With `COC(F)(F)c1nnc2cnc(-c3cnc(O[C@@H](C)C(F)(F)F)c(F)c3)cn12` [Compound 6B, 3-[difluoro(methoxy)methyl]-6-[5-fluoro-6-[(1S)-2,2,2-trifluoro-1-methyl-ethoxy]-3-pyridyl]-[1,2,4]triazolo[4,3-a]pyrazine], the “Mean latency to tonic extension” value is recorded as 17.3 s in test [1] (1 mg/kg PO, pre-treatment 120 min) and 50.5 s in test [1] (3 mg/kg PO, pre-treatment 120 min). In addition, the inhibition at 1 µM in [2] is over 70%; in [3] it was over 50%; in test [5], over 50%; in [6], over 50%; in test [7], over 50%; in [8] it was over 50%. For the same compound, the inhibition at 1 µM in test [9] and in test [10] was over 50% throughout. Further, the “hNav1.2 Peak INa” value in test [11] is “B (inhibition of greater than 50%)”. In addition, the “hNav1.1 Peak INa” value in test [4] is “B (inhibition of greater than 50%)”.

Regarding `CCOC(F)(F)c1nnc2cnc(-c3cnc(OCC(F)(F)F)c(F)c3)cn12` [Compound 10], the inhibition at 1 µM in [12] is over 70%; in [2], over 70%; in test [3], over 50%; in [5] it was over 50%; in test [6], over 50%; in test [7], over 50%. Also, the inhibition at 1 µM is over 50% in [8], under 50% in [9] and over 50% in test [10]. Moreover, the “Mean latency to tonic extension” value in [1] (1 mg/kg PO, pre-treatment 30 min) was determined as 7.9 s; in test [1] (setting [13]) it was 36.3 s; in test [1] (setting [14]), 55.2 s. For the same compound, in test [11], the “hNav1.2 Peak INa” value is reported as “A (inhibition between less than 0% to 50%)”. For the same compound, in test [4], the “hNav1.1 Peak INa” value was “B (inhibition of greater than 50%)”.

For the compound `COC(F)(F)c1nnc2cnc(-c3cnc(OC4(C(F)(F)F)CCC4)c(F)c3)cn12` [Compound 11, 3-[difluoro(methoxy)methyl]-6-[5-fluoro-6-[1-(trifluoromethyl)cyclobutoxy]-3-pyridyl]-[1,2,4]triazolo[4,3-a]pyrazine], the inhibition at 1 µM in test [2] was over 70%; in test [3], over 50%; in test [5], over 50%; in [6], over 50%; in [7], over 50%; in test [8], under 50%. Also, the inhibition at 1 µM in test [9] and in test [10] was over 50% each time. Besides, in [4], the “hNav1.1 Peak INa” value is on record as “B (inhibition of greater than 50%)”.

With `CCOC(F)(F)c1nnc2ccc(-c3cnc(OCC(F)(F)F)c(F)c3)nn12` [Compound 16, 3-[ethoxy(difluoro)methyl]-6-[5-fluoro-6-(2,2,2-trifluoroethoxy)-3-pyridyl]-[1,2,4]triazolo[4,3-b]pyridazine], the inhibition at 1 µM in [12] and in test [2] was over 70% throughout.

For `COCc1nnc2cnc(-c3cnc(OC(C)(C)C(F)(F)F)c(F)c3)cn12` [Compound 48], the results for the “Mean latency to tonic extension” value in test [1] (setting [13]) and in test [1] (setting [14]) were 42.5 s and 60 s, respectively. For the same compound, the inhibition at 1 µM in [2] is over 70%; in test [3], over 50%; in [5], over 50%; in test [6], over 50%; in test [7], over 50%; in [8], under 50%. Moreover, the inhibition at 1 µM in test [9] is under 50%; in test [10], over 50%.

Consider `COC(F)(F)c1nnc2cnc(-c3ccc(OC(C)(C)C(F)(F)F)nc3)cn12` [Compound 56, 3-[difluoro(methoxy)methyl]-6-[6-(2,2,2-trifluoro-1,1-dimethyl-ethoxy)-3-pyridyl]-[1,2,4]triazolo[4,3-a]pyrazine], for which the inhibition at 1 µM in [12] was over 70%; in test [2], over 70%; in test [3], over 50%; in test [5], over 50%; in test [6] it was over 50%; in [7], over 50%. The inhibition at 1 µM in [8] was under 50%; in test [9], over 50%; in [10], over 50%. Further, the “hNav1.2 Peak INa” value in [11] is recorded as “B (inhibition of greater than 50%)”. Besides, the “hNav1.1 Peak INa” value in test [4] was “B (inhibition of greater than 50%)”.

`COC(F)(F)c1nnc2cnc(-c3ccc(O[C@@H](C)C(F)(F)F)nc3)cn12` [Compound 59, 3-[difluoro(methoxy)methyl]-6-[6-[(1S)-2,2,2-trifluoro-1-methyl-ethoxy]-3-pyridyl]-[1,2,4]triazolo[4,3-a]pyrazine]: the inhibition at 1 µM in test [12] is over 70%; in test [2], over 70%; in test [3], over 50%; in [5] it was over 50%; in test [6], over 50%; in test [7], over 50%. Also, the inhibition at 1 µM in test [8], in test [9] and in [10] was over 50% each time. Also, the “hNav1.2 Peak INa” value in test [11] was “B (inhibition of greater than 50%)”. Besides, the “hNav1.1 Peak INa” value in [4] is listed as “B (inhibition of greater than 50%)”.
